Target: T1, Seed linoleate 13S-lipoxygenase-1 (Glycine max, UniProt P08170)
T1 sequence (P08170 whole entry): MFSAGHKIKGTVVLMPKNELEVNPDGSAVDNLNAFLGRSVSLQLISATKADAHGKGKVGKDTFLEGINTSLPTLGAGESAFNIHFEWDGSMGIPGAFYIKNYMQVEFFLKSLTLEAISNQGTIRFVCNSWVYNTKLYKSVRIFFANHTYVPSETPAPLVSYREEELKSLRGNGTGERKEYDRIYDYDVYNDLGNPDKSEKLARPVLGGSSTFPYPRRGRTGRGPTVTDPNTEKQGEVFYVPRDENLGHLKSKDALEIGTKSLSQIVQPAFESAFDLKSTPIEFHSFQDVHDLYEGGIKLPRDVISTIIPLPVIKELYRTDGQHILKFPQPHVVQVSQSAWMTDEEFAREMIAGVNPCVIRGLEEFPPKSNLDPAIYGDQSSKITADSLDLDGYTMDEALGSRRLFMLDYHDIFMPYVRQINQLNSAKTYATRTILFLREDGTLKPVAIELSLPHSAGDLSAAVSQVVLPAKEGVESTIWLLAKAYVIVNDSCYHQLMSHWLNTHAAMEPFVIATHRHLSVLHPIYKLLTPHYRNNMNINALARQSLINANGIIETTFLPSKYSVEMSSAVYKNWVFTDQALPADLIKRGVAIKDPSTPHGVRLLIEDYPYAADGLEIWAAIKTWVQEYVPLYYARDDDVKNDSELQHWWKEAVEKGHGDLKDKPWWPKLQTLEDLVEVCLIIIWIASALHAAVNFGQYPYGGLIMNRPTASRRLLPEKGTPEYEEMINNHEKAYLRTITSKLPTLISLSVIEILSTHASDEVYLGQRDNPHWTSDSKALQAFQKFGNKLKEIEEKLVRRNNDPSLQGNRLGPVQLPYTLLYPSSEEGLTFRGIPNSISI
Test: LOX Activity Assay
Details: 25 °C
Method: Enzyme activity was monitored by UV analysis. 0.05 cm^3 of enzyme solution was added to a cuvette containing 2 cm^3 linoleic acid solution and the appropriate amounts of buffer and inhibitor solutions in thermostatic water bath at 25°C. There was no pre-incubation time of the enzyme with inhibitor solution. The activity of the enzyme was determined by monitoring the increase in the absorption caused by the oxidation of linoleic acid at 234 nm and 25°C (ε = 25 000 M^−1 cm^−1). One standard solution of complexes in DMSO (10^-2 M) was used for theinhibition activity experiments (three sets). In this case, the substrate concentration was kept constant (0.3 mM), while the amounts of buffer and inhibitor solutions varied according to the inhibitor final concentration needed(0.5-30 μM or 0.15-9 μL from standard solutions). The total experiment volume was 3 cm^3.

IC50 [µM]	SMILES
18.8	c1ccc([PH]([Au][S]C2=NCCS2)(c2ccccc2)c2ccccc2)cc1 [[Au(tpp)(mtzd)] (2)]
1.2	[Cl][Au][PH](c1ccccc1)(c1ccccc1)c1ccccc1 [[Au(tpp)Cl] (1)]
16	Clc1ccc2sc([S][Au][PH](c3ccccc3)(c3ccccc3)c3ccccc3)nc2c1 [[Au(tpp)(Clmbzt)] (4)]
39.4	c1ccc([PH]([Au][S]c2nc3ccccc3s2)(c2ccccc2)c2ccccc2)cc1 [[Au(tpp)(mbzt)] (3)]

Reference: BindingDB's records for doi:10.3109/14756366.2010.529807 (University of Ioannina, 2011)
